Measurements: PubChem BioAssay (NCI)
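In this assay, cells in 96-well plates receive the compound at five concentrations for 48 hours. Endpoints are linearly interpolated between the surrounding concentrations. TGI is the concentration that stops growth completely.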

Experiments:
Test in all cases: growth of human tumour cells (NCI), 48 h
[1] = tested on: NCI-H522 lung
[2] = tested on: M19-MEL melanoma
[3] = tested on: LXFL 529 NSCLC
[4] = tested on: SK-MEL-28 melanoma
[5] = tested on: HOP-92 NSCLC
[6] = tested on: EKVX NSCLC
[7] = tested on: KM20L2 colon
[8] = tested on: HCC-2998 colon
[9] = tested on: SNB-19 CNS
[10] = tested on: HL-60(TB) leukemia
[11] = tested on: COLO 205 colon
[12] = tested on: XF 498 CNS
[13] = tested on: K-562 leukemia
[14] = tested on: OVCAR-5 ovarian
[15] = tested on: SF-295 CNS
[16] = tested on: HT29 colon
[17] = tested on: SK-MEL-5 melanoma
[18] = tested on: NCI-H460 lung
[19] = tested on: LOX IMVI melanoma
[20] = tested on: 786-0 renal
[21] = tested on: MOLT-4 leukemia
[22] = tested on: IGROV1 ovarian
[23] = tested on: RXF-631 renal
[24] = tested on: DMS 273 small cell lung
[25] = tested on: DMS 114 small cell lung
[26] = tested on: RXF 393 renal
[27] = tested on: OVCAR-3 ovarian
[28] = tested on: SK-MEL-2 melanoma
[29] = tested on: UACC-257 melanoma
[30] = tested on: HCT-15 colon
[31] = tested on: SF-539 CNS
[32] = tested on: NCI-H23 lung
[33] = tested on: SK-OV-3 ovarian
[34] = tested on: MALME-3M melanoma
[35] = tested on: TK-10 renal
[36] = tested on: SN12C renal
[37] = tested on: UACC-62 melanoma
[38] = tested on: CCRF-CEM leukemia
[39] = tested on: U251 CNS
[40] = tested on: HOP-62 NSCLC
[41] = tested on: ACHN renal
[42] = tested on: HOP-18 NSCLC
[43] = tested on: DLD-1 colon
[44] = tested on: SW-620 colon
[45] = tested on: SF-268 CNS
[46] = tested on: OVCAR-8 ovarian
[47] = tested on: A549 NSCLC
[48] = tested on: SR leukemia
[49] = tested on: NCI-H226 lung
[50] = tested on: HCT-116 colon
[51] = tested on: KM12 colon
[52] = tested on: CAKI-1 renal

Measured: TGI

C=CCNC(=S)NNC(=O)c1c(C)nc2sccn12
> 100 µM: all assays above
